{
  "source": "patent US9028845B2",
  "about": "“Chimeric immunomodulatory compounds and methods of using the same-IV” (Dynavax Technologies Corporation, priority 2001, dated 2015)",
  "system": "human PBMCs",
  "experiment": "Human PBMC cytokine response assay (IFN-γ and IFN-α in cell-free medium by ELISA), with or without cPLGA;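 as to IFN-α (pg/ml) mean: 20 µg/mL compound for 24 hours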;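 as to IFN-γ (pg/ml) mean: 20 µg/mL compound for 24 hours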",
  "type": "cell-based",
  "key": {"[1]": {"settings": "Table 24, mean of donors 28234-28237"}, "[2]": {"settings": "Table 25, mean of donors 28250-28253"}, "[3]": {"settings": "donor 28066, 20 ug/ml, 24 h, + PLGA = premixed with 100 μg/ml cPLGA"}, "[4]": {"settings": "donor 28067, 20 ug/ml, 24 h, + PLGA = premixed with 100 μg/ml cPLGA"}, "[5]": {"settings": "donor 28068, 20 ug/ml, 24 h, + PLGA = premixed with 100 μg/ml cPLGA"}, "[6]": {"settings": "mean of Donors 1-2, 20 μg/ml, 24 h"}, "[7]": {"settings": "mean of Donors 3-4, 20 μg/ml, 24 h"}, "[8]": {"settings": "mean of Donors 5-6, 20 μg/ml (mixtures: 20 μg/ml total), 24 h"}, "[9]": {"settings": "mean of Donors 7-8, 20 μg/ml, 24 h"}, "[10]": {"settings": "mean of Donors 9-12, 20 μg/ml, 24 h"}, "[11]": {"settings": "mean of donors 110, 112, 119, 120, Table 14"}, "[12]": {"settings": "mean of donors 28057-28060, Table 16"}, "[13]": {"settings": "mean of donors 28065-28068, 20 ug/ml, 24 h, + PLGA = premixed with 100 μg/ml cPLGA"}, "[14]": {"settings": "mean of donors 28185-28188, Table 15"}, "[15]": {"settings": "mean of donors 28218-28221, 20 μg/ml, 24 h"}},
  "note": "Strand notation (5' to 3'): a small letter for the sugar, then the base; units joined by * are phosphorothioate-linked, units joined directly phosphodiester-linked; [ ] holds rarer units or linkages, { } end groups; capitals alone tell only the bases. d = 2'-deoxy (DNA)",
  "data": [
    {"substance": "5′-TGACTGTGAACCTTAGAGATGA-3′ (SEQ ID NO: 3) (dT*dG*dA*dC*dT*dG*dT*dG*dA*dA*dC*dC*dT*dT*dA*dG*dA*dG*dA*dT*dG*dA) [Compound P-7, negative control, reference compound]", "values": [
      {"measurement": "IFN-γ mean", "setting": "Table 11, mean of donors", "result": 34, "unit": "pg/mL"},
      {"measurement": "IFN-α", "setting": "Table 24, donor 28234", "result": 62, "unit": "pg/mL"},
      {"measurement": "IFN-γ", "setting": "Table 24, donor 28234", "result": 13, "unit": "pg/mL"},
      {"measurement": "IFN-α", "setting": "Table 24, donor 28235", "result": 16, "unit": "pg/mL"},
      {"measurement": "IFN-γ", "setting": "Table 24, donor 28235", "result": 4, "unit": "pg/mL"},
      {"measurement": "IFN-α", "setting": "Table 24, donor 28236", "result": 16, "unit": "pg/mL"},
      {"measurement": "IFN-γ", "setting": "Table 24, donor 28236", "result": 7, "unit": "pg/mL"},
      {"measurement": "IFN-α", "setting": "Table 24, donor 28237", "result": 16, "unit": "pg/mL"},
      {"measurement": "IFN-γ", "setting": "Table 24, donor 28237", "result": 4, "unit": "pg/mL"},
      {"measurement": "IFN-α mean", "setting": "[1]", "result": 28, "unit": "pg/mL"},
      {"measurement": "IFN-γ mean", "setting": "[1]", "result": 7, "unit": "pg/mL"},
      {"measurement": "IFN-a", "setting": "Table 25, donor 28250", "result": 16, "unit": "pg/mL"},
      {"measurement": "IFN-g", "setting": "Table 25, donor 28250, polynucleotides/spacers at amounts equivalent to the CIC, spacers alone 9 uM", "result": 104, "unit": "pg/mL"},
      {"measurement": "IFN-a", "setting": "Table 25, donor 28251", "result": 16, "unit": "pg/mL"},
      {"measurement": "IFN-g", "setting": "Table 25, donor 28251", "result": 1, "unit": "pg/mL"},
      {"measurement": "IFN-a", "setting": "Table 25, donor 28252", "result": 16, "unit": "pg/mL"},
      {"measurement": "IFN-g", "setting": "Table 25, donor 28252", "result": 39, "unit": "pg/mL"},
      {"measurement": "IFN-a", "setting": "Table 25, donor 28253", "result": 16, "unit": "pg/mL"},
      {"measurement": "IFN-g", "setting": "Table 25, donor 28253", "result": 1, "unit": "pg/mL"},
      {"measurement": "IFN-a mean", "setting": "[2]", "result": 16, "unit": "pg/mL"},
      {"measurement": "IFN-g mean", "setting": "[2]", "result": 36, "unit": "pg/mL"},
      {"measurement": "IFN-α", "setting": "donor 110, Table 14", "result": 2, "unit": "pg/mL"},
      {"measurement": "IFN-γ", "setting": "donor 110, Table 14", "result": 124, "unit": "pg/mL"},
      {"measurement": "IFN-α", "setting": "donor 112, Table 14", "result": 32, "unit": "pg/mL"},
      {"measurement": "IFN-γ", "setting": "donor 112, Table 14", "result": 24, "unit": "pg/mL"},
      {"measurement": "IFN-α", "setting": "donor 119, Table 14", "result": 474, "unit": "pg/mL"},
      {"measurement": "IFN-γ", "setting": "donor 119, Table 14", "result": 16, "unit": "pg/mL"},
      {"measurement": "IFN-α", "setting": "donor 120, Table 14", "result": 2, "unit": "pg/mL"},
      {"measurement": "IFN-γ", "setting": "donor 120, Table 14", "result": 40, "unit": "pg/mL"},
      {"measurement": "IFN-α", "setting": "donor 28057, Table 16", "result": 0, "unit": "pg/mL"},
      {"measurement": "IFN-γ", "setting": "donor 28057, Table 16", "result": 1, "unit": "pg/mL"},
      {"measurement": "IFN-α", "setting": "donor 28058, Table 16", "result": 0, "unit": "pg/mL"},
      {"measurement": "IFN-γ", "setting": "donor 28058, Table 16", "result": 2, "unit": "pg/mL"},
      {"measurement": "IFN-α", "setting": "donor 28059, Table 16", "result": 0, "unit": "pg/mL"},
      {"measurement": "IFN-γ", "setting": "donor 28059, Table 16", "result": 3, "unit": "pg/mL"},
      {"measurement": "IFN-α", "setting": "donor 28060, Table 16", "result": 0, "unit": "pg/mL"},
      {"measurement": "IFN-γ", "setting": "donor 28060, Table 16", "result": 4, "unit": "pg/mL"},
      {"measurement": "IFN-γ (pg/ml) 28065", "setting": "donor 28065 (high background), 20 ug/ml, 24 h, + PLGA = premixed with 100 μg/ml cPLGA, 1000 = outside assay limits", "result": 397, "unit": "pg/mL"},
      {"measurement": "IFN-α (pg/ml) 28065", "setting": "donor 28065, 20 ug/ml, 24 h, + PLGA = premixed with 100 μg/ml cPLGA", "result": 0, "unit": "pg/mL"},
      {"measurement": "IFN-α (pg/ml) 28066", "setting": "[3]", "result": 8, "unit": "pg/mL"},
      {"measurement": "IFN-γ (pg/ml) 28066", "setting": "[3]", "result": 1, "unit": "pg/mL"},
      {"measurement": "IFN-α (pg/ml) 28067", "setting": "[4]", "result": 0, "unit": "pg/mL"},
      {"measurement": "IFN-γ (pg/ml) 28067", "setting": "[4]", "result": 8, "unit": "pg/mL"},
      {"measurement": "IFN-α (pg/ml) 28068", "setting": "[5]", "result": 3, "unit": "pg/mL"},
      {"measurement": "IFN-γ (pg/ml) 28068", "setting": "[5]", "result": 15, "unit": "pg/mL"},
      {"measurement": "IFN-a", "setting": "donor 28185, Table 15", "result": 4, "unit": "pg/mL"},
      {"measurement": "IFN-g", "setting": "donor 28185, Table 15", "result": 0, "unit": "pg/mL"},
      {"measurement": "IFN-a", "setting": "donor 28186, Table 15", "result": 25, "unit": "pg/mL"},
      {"measurement": "IFN-g", "setting": "donor 28186, Table 15", "result": 4, "unit": "pg/mL"},
      {"measurement": "IFN-a", "setting": "donor 28187, Table 15", "result": 5, "unit": "pg/mL"},
      {"measurement": "IFN-g", "setting": "donor 28187, Table 15", "result": 19, "unit": "pg/mL"},
      {"measurement": "IFN-a", "setting": "donor 28188, Table 15", "result": 31, "unit": "pg/mL"},
      {"measurement": "IFN-g", "setting": "donor 28188, Table 15", "result": 2, "unit": "pg/mL"},
      {"measurement": "IFN-a (pg/ml) 28218", "setting": "donor 28218, 20 μg/ml, 24 h", "result": 32, "unit": "pg/mL"},
      {"measurement": "IFN-g (pg/ml) 28218", "setting": "donor 28218, 20 μg/ml, 24 h", "result": 5, "unit": "pg/mL"},
      {"measurement": "IFN-a (pg/ml) 28219", "setting": "donor 28219, 20 μg/ml, 24 h", "result": 32, "unit": "pg/mL"},
      {"measurement": "IFN-g (pg/ml) 28219", "setting": "donor 28219, 20 μg/ml, 24 h", "result": 5, "unit": "pg/mL"},
      {"measurement": "IFN-a (pg/ml) 28220", "setting": "donor 28220, 20 μg/ml, 24 h", "result": 32, "unit": "pg/mL"},
      {"measurement": "IFN-g (pg/ml) 28220", "setting": "donor 28220, 20 μg/ml, 24 h", "result": 5, "unit": "pg/mL"},
      {"measurement": "IFN-a (pg/ml) 28221", "setting": "donor 28221, 20 μg/ml, 24 h", "result": 32, "unit": "pg/mL"},
      {"measurement": "IFN-g (pg/ml) 28221", "setting": "donor 28221, 20 μg/ml, 24 h", "result": 5, "unit": "pg/mL"},
      {"measurement": "IFN-α (pg/ml) mean", "setting": "[6]", "result": 0, "unit": "pg/mL"},
      {"measurement": "IFN-γ (pg/ml) mean", "setting": "[6]", "result": 231, "unit": "pg/mL"},
      {"measurement": "IFN-α (pg/ml) mean", "setting": "[7]", "result": 15, "unit": "pg/mL"},
      {"measurement": "IFN-γ (pg/ml) mean", "setting": "[7]", "result": 5, "unit": "pg/mL"},
      {"measurement": "IFN-α (pg/ml) mean", "setting": "[8]", "result": 57, "unit": "pg/mL"},
      {"measurement": "IFN-γ (pg/ml) mean", "setting": "[8]", "result": 37, "unit": "pg/mL"},
      {"measurement": "IFN-α (pg/ml) mean", "setting": "[9]", "result": 0, "unit": "pg/mL"},
      {"measurement": "IFN-γ (pg/ml) mean", "setting": "[9]", "result": 2, "unit": "pg/mL"},
      {"measurement": "IFN-α mean", "setting": "[10]", "result": 2},
      {"measurement": "IFN-γ mean", "setting": "[10]", "result": 3},
      {"measurement": "IFN-α (pg/ml) mean", "setting": "[11]", "result": 128, "unit": "pg/mL"},
      {"measurement": "IFN-γ (pg/ml) mean", "setting": "[11]", "result": 51, "unit": "pg/mL"},
      {"measurement": "IFN-α (pg/ml) mean", "setting": "[12]", "result": 0, "unit": "pg/mL"},
      {"measurement": "IFN-γ (pg/ml) mean", "setting": "[12]", "result": 2, "unit": "pg/mL"},
      {"measurement": "IFN-α (pg/ml) mean", "setting": "[13]", "result": 3, "unit": "pg/mL"},
      {"measurement": "IFN-γ (pg/ml) mean", "setting": "[13]", "result": 105, "unit": "pg/mL"},
      {"measurement": "IFN-a (pg/ml) mean", "setting": "[14]", "result": 16, "unit": "pg/mL"},
      {"measurement": "IFN-g (pg/ml) mean", "setting": "[14]", "result": 6, "unit": "pg/mL"},
      {"measurement": "IFN-a (pg/ml) mean", "setting": "[15]", "result": 32, "unit": "pg/mL"},
      {"measurement": "IFN-g (pg/ml) mean", "setting": "[15]", "result": 5, "unit": "pg/mL"},
      {"measurement": "IFN-a (pg/ml) ×2", "setting": "mean ×2, Table 15", "result": 32, "unit": "pg/mL"},
      {"measurement": "IFN-g (pg/ml) ×4", "setting": "mean ×4, Table 15", "result": 25, "unit": "pg/mL"},
      {"measurement": "immunomodulatory activity (IFN-γ / IFN-α secretion), in words", "setting": "used alone (no cPLGA)", "result": "no activity"}
    ]}
  ]
}
